From patent publication US20250320213A1, “Nitrogen-Containing Heterocyclic Compounds” (Pfizer Inc., priority 2024, published 2025)

molecular target: T1, STAT6 (Homo sapiens, UniProt P42226); test: STAT6 Reporter Luciferase Assay (IL-13 stimulated HaCaT keratinocyte NanoLuc reporter cells); format: cell-based; settings: IL-13 stimulated HaCaT STAT6 NanoLuc reporter cells; read-out: Reporter EC50
T1 construct: stably transfected HaCaT keratinocyte cell line, which expresses NanoLuc luciferase reporter gene under the transcriptional control of the STAT6 responsive promoter; endogenous in cells; host or cells: HaCaT keratinocyte reporter cell line (stably transfected with a NanoLuc reporter)
T1 sequence (P42226 1-847): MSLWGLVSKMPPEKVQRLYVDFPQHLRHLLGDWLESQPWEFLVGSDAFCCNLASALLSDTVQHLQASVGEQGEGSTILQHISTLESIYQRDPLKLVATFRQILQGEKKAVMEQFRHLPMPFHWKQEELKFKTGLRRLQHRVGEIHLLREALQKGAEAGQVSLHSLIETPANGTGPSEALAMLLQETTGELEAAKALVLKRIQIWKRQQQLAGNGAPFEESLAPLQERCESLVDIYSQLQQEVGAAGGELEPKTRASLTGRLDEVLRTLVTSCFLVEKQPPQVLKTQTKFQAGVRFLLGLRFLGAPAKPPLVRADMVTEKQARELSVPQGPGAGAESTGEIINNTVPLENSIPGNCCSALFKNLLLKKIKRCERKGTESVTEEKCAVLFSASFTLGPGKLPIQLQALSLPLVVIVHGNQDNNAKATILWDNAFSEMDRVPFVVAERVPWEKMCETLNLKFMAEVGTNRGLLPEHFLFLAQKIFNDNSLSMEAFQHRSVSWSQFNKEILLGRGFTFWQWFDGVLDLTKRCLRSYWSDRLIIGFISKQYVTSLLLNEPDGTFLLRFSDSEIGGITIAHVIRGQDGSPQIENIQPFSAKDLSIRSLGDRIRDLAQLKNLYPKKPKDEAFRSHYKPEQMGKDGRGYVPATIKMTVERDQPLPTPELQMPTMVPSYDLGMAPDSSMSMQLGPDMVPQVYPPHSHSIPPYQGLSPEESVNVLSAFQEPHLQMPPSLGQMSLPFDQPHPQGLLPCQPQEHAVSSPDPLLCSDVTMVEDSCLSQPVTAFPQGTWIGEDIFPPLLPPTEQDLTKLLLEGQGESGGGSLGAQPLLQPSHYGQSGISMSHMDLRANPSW
Method: Pharmacological measurements of STAT6 transcriptional activity through the IL-13-IL-13 receptor/IL-4 receptor pathway were made with a stably transfected HaCaT keratinocyte cell line, which expresses NanoLuc luciferase reporter gene under the transcriptional control of the STAT6 responsive promoter for IL-13Ra2. The readout of the STAT6 activity utilized Promega Nano-Glo Luciferase assay kit.
The reporter cells were cultured in a growth media comprised of DMEM High Glucose, no calcium and no glutamine, 10% heat inactivated fetal bovine serum (HI FBS), 1% 100× Glutamax, and 100 U/mL Penicillin-Streptomycin (units of penicillin in 1 mL of streptomycin). Seven thousand cells were plated in 25 microliter (μL) per well in a 384-well, white bottom, tissue culture plate. Cells were cultured overnight at 37° C. The next day, test compounds (solubilized and serially diluted in DMSO, in an 11 point, 4-fold dilution series in duplicate) were spotted, 60 nanoliters (nL) per well, into a 384 well v-bottom polypropylene plate. Thirty μL per well of 37° C. dosing media (Dulbecco's modified eagle medium (DMEM) High Glucose, no calcium and no glutamine with 2% HI FBS) was added to the compound plate. Growth media was removed from the cell plate, and the cells were washed with DPBS. Twenty μL per well of compounds diluted in dosing media were transferred from the compound plate to the cell plate and the compounds were further diluted with an additional 15 μL of dosing media in the cell plate: the cell plate was incubated for two hours at 37° C. After two hours, STAT6 activity was stimulated with the addition of 5 μL per well of IL-13 (R&D Systems) in dosing media with a final concentration of 0.12 nM IL13. Cells were incubated at 37° C. for 4 hours to allow for reporter gene expression, then all media was removed from the plate. The cell plates were treated with assay buffer and Luciferase substrate from Nano-Glo Luciferase Assay Kit for 15 min and then measured for luminescence on an EnVision 2105 multilabel reader (PerkinElmer).

SMILES	EC50
CC(=O)N1CCCN(C(=O)c2ccc(N3CCc4c(c(C(=O)NCc5ccc(NC(=O)N(C)C)cc5)nn4C(C)C)C3)nc2)CC1 [Example 200, 5-(5-(4-acetyl-1,4-diazepane-1-carbonyl)pyridin-2-yl)-N-(4-(3,3-dimethylureido)benzyl)-1-isopropyl-4,5,6,7-tetrahydro-1H-pyrazolo[4,3-c]pyridine-3-carboxamide]	363 nM
COc1nc(N2CCc3c(c(C(=O)NCc4ccc(NC(=O)N(C)C)cc4)nn3C(C)C)C2)ccc1[C@]1(C)CNC(=O)C1 [Example 202, (R)-N-(4-(3,3-dimethylureido)benzyl)-1-isopropyl-5-(6-methoxy-5-(3-methyl-5-oxopyrrolidin-3-yl)pyridin-2-yl)-4,5,6,7-tetrahydro-1H-pyrazolo[4,3-c]pyridine-3-carboxamide]	8080 nM
COC[C@@H]1CCCN1C(=O)c1ccc(N2CCc3c(c(C(=O)NCc4ccc(NC(=O)N(C)C)cc4)nn3C(C)C)C2)nc1 [Example 209, (S)-N-(4-(3,3-dimethylureido)benzyl)-1-isopropyl-5-(5-(2-(methoxymethyl)pyrrolidine-1-carbonyl)pyridin-2-yl)-4,5,6,7-tetrahydro-1H-pyrazolo[4,3-c]pyridine-3-carboxamide]	692 nM
CC(C)n1nc(C(=O)NCc2ccc(NC(=O)N(C)C)cc2)c2c1CCN(c1ccc(C(=O)N3CC(C#N)C3)cn1)C2 [Example 210, 5-(5-(3-cyanoazetidine-1-carbonyl)pyridin-2-yl)-N-(4-(3,3-dimethylureido)benzyl)-1-isopropyl-4,5,6,7-tetrahydro-1H-pyrazolo[4,3-c]pyridine-3-carboxamide]	1060 nM
CC(=O)N[C@@H]1CCN(C(=O)c2ccc(N3CCc4c(c(C(=O)NCc5ccc(NC(=O)N(C)C)cc5)nn4C(C)C)C3)nc2)C1 [Example 211, (R)-5-(5-(3-acetamidopyrrolidine-1-carbonyl)pyridin-2-yl)-N-(4-(3,3-dimethylureido)benzyl)-1-isopropyl-4,5,6,7-tetrahydro-1H-pyrazolo[4,3-c]pyridine-3-carboxamide]	934 nM
CC(C)n1nc(C(=O)NCc2ccc(NC(=O)N(C)C)cc2)c2c1CCN(c1ccc(C(=O)N3C[C@H]4C[C@@H](C3)O4)cn1)C2 [Example 212, 5-(5-((1R,5S)-6-oxa-3-azabicyclo[3.1.1]heptane-3-carbonyl)pyridin-2-yl)-N-(4-(3,3-dimethylureido)benzyl)-1-isopropyl-4,5,6,7-tetrahydro-1H-pyrazolo[4,3-c]pyridine-3-carboxamide]	278 nM
CCN(CC(=O)NC)C(=O)c1ccc(N2CCc3c(c(C(=O)NCc4ccc(NC(=O)N(C)C)cc4)nn3C(C)C)C2)nc1 [Example 213, N-(4-(3,3-dimethylureido)benzyl)-5-(5-(ethyl(2-(methylamino)-2-oxoethyl)carbamoyl)pyridin-2-yl)-1-isopropyl-4,5,6,7-tetrahydro-1H-pyrazolo[4,3-c]pyridine-3-carboxamide]	718 nM
CC(C)n1nc(C(=O)NCc2ccc(NC(=O)N(C)C)cc2)c2c1CCN(c1ccc(C(=O)N3CCNC(=O)CC3)cn1)C2 [Example 214, N-(4-(3,3-dimethylureido)benzyl)-1-isopropyl-5-(5-(5-oxo-1,4-diazepane-1-carbonyl)pyridin-2-yl)-4,5,6,7-tetrahydro-1H-pyrazolo[4,3-c]pyridine-3-carboxamide]	502 nM
CO[C@@H]1CCN(C(=O)c2ccc(N3CCc4c(c(C(=O)NCc5ccc(NC(=O)N(C)C)cc5)nn4C(C)C)C3)nc2)C1 [Example 216, (R)-N-(4-(3,3-dimethylureido)benzyl)-1-isopropyl-5-(5-(3-methoxypyrrolidine-1-carbonyl)pyridin-2-yl)-4,5,6,7-tetrahydro-1H-pyrazolo[4,3-c]pyridine-3-carboxamide]	546 nM
CC(C)n1nc(C(=O)NCc2ccc(NC(=O)N(C)C)cc2)c2c1CCN(c1ccc(C(=O)N3CCC[C@@H]3C(N)=O)cn1)C2 [Example 218, (R)-5-(5-(2-carbamoylpyrrolidine-1-carbonyl)pyridin-2-yl)-N-(4-(3,3-dimethylureido)benzyl)-1-isopropyl-4,5,6,7-tetrahydro-1H-pyrazolo[4,3-c]pyridine-3-carboxamide]	2380 nM

Now from value to compound:

EC50	SMILES
90 nM	CCC(=O)N1CCN(C(=O)c2ccc(N3CCc4c(c(C(=O)NCc5ccc(NC(=O)N(C)C)cc5)nn4C(C)C)C3)nc2)CC1 [Example 196, N-(4-(3,3-dimethylureido)benzyl)-1-isopropyl-5-(5-(4-propionylpiperazine-1-carbonyl)pyridin-2-yl)-4,5,6,7-tetrahydro-1H-pyrazolo[4,3-c]pyridine-3-carboxamide]
197 nM	CC(C)n1nc(C(=O)NCc2ccc(NC(=O)N(C)C)cc2)c2c1CCN(c1ccc(C(=O)N3CCC[C@H]3C(N)=O)cn1)C2 [Example 197, (S)-5-(5-(2-carbamoylpyrrolidine-1-carbonyl)pyridin-2-yl)-N-(4-(3,3-dimethylureido)benzyl)-1-isopropyl-4,5,6,7-tetrahydro-1H-pyrazolo[4,3-c]pyridine-3-carboxamide]
125 nM	COC1CCN(C(=O)c2ccc(N3CCc4c(c(C(=O)NCc5ccc(NC(=O)N(C)C)cc5)nn4C(C)C)C3)nc2)CC1 [Example 199, N-(4-(3,3-dimethylureido)benzyl)-1-isopropyl-5-(5-(4-methoxypiperidine-1-carbonyl)pyridin-2-yl)-4,5,6,7-tetrahydro-1H-pyrazolo[4,3-c]pyridine-3-carboxamide]
343 nM	CCO[C@H]1CCN(C(=O)c2ccc(N3CCc4c(c(C(=O)NCc5ccc(NC(=O)N(C)C)cc5)nn4C(C)C)C3)nc2)C1 [Example 201, (S)-N-(4-(3,3-dimethylureido)benzyl)-5-(5-(3-ethoxypyrrolidine-1-carbonyl)pyridin-2-yl)-1-isopropyl-4,5,6,7-tetrahydro-1H-pyrazolo[4,3-c]pyridine-3-carboxamide]
97 nM	CC(C)n1nc(C(=O)NCc2ccc(NC(=O)N(C)C)cc2)c2c1CCN(c1ccc(C(=O)N3CCOCC3)cn1)C2 [Example 206, N-(4-(3,3-dimethylureido)benzyl)-1-isopropyl-5-(5-(morpholine-4-carbonyl)pyridin-2-yl)-4,5,6,7-tetrahydro-1H-pyrazolo[4,3-c]pyridine-3-carboxamide]
272 nM	CC(C)n1nc(C(=O)NCc2ccc(NC(=O)N(C)C)cc2)c2c1CCN(c1ccc(C(=O)N3C[C@@H](C)O[C@@H](C)C3)cn1)C2 [Example 207, 5-(5-((2R,6S)-2,6-dimethylmorpholine-4-carbonyl)pyridin-2-yl)-N-(4-(3,3-dimethylureido)benzyl)-1-isopropyl-4,5,6,7-tetrahydro-1H-pyrazolo[4,3-c]pyridine-3-carboxamide]
276 nM	CC(C)n1nc(C(=O)NCc2ccc(NC(=O)N(C)C)cc2)c2c1CCN(c1ccc(C(=O)N3CC(O)C3)cn1)C2 [Example 215, N-(4-(3,3-dimethylureido)benzyl)-5-(5-(3-hydroxyazetidine-1-carbonyl)pyridin-2-yl)-1-isopropyl-4,5,6,7-tetrahydro-1H-pyrazolo[4,3-c]pyridine-3-carboxamide]
272 nM	CC(C)n1nc(C(=O)NCc2ccc(NC(=O)N(C)C)cc2)c2c1CCN(c1ccc(C(=O)N3CCNC(=O)C3(C)C)cn1)C2 [Example 217, 5-(5-(2,2-dimethyl-3-oxopiperazine-1-carbonyl)pyridin-2-yl)-N-(4-(3,3-dimethylureido)benzyl)-1-isopropyl-4,5,6,7-tetrahydro-1H-pyrazolo[4,3-c]pyridine-3-carboxamide]
